{"source": "patent US10517803B2", "about": "“Individual's sensitivity to fluoride poisoning” (priority 2017, dated 2019)", "key": {"[1]": {"tested_on": "people", "settings": "most people; cited from earlier work"}, "[2]": {"tested_on": "rats", "assay": "Median lethal dose (LD50) orally in rats", "assay_type": "in vivo", "settings": "extrapolated from oral rat LD50 to a 100 kg adult"}, "[3]": {"tested_on": "rats", "settings": "orally in rats; cited from earlier work"}}, "data": [{"smiles": "F", "note": "[Fluoride]", "values": [{"measurement": "highest level of daily nutrient intake likely to pose no risk of adverse health effects", "setting": "[1]", "value": 10, "unit": "mg/day"}]}, {"smiles": "F[Si-2](F)(F)(F)(F)F.[Na+].[Na+]", "note": "[sodium fluorosilicate]", "values": [{"measurement": "median lethal dose (LD50), corresponding amount for a 100 kg adult", "setting": "[2]", "value": 12.5, "unit": "g"}, {"measurement": "median lethal dose (LD50)", "setting": "[3]", "value": 125, "unit": "mg/kg"}]}]}
